The test system of this series is CCRIS mutagenicity, Ames/micronucleus/aberration tests. Description: CCRIS mutagenicity studies.
The mark [1] stands for this setting: Test System: AMES SALMONELLA TYPHIMURIUM, Strain/Indicator: TA98, Metabolic Activation: NONE, Method: STANDARD PLATE.
The mark [2] stands for this setting: Test System: AMES SALMONELLA TYPHIMURIUM, Strain/Indicator: TA100, Metabolic Activation: NONE, Method: STANDARD PLATE.
The mark [3] stands for this setting: Test System: AMES SALMONELLA TYPHIMURIUM, Strain/Indicator: TA1535, Metabolic Activation: NONE, Method: STANDARD PLATE.
The mark [4] stands for this setting: Test System: AMES SALMONELLA TYPHIMURIUM, Strain/Indicator: TA1537, Metabolic Activation: NONE, Method: STANDARD PLATE.
[5] abbreviates: Test System: AMES SALMONELLA TYPHIMURIUM, Strain/Indicator: TA1538, Metabolic Activation: NONE, Method: STANDARD PLATE.

Molecules are shown by their SMILES. Active and inactive are the calls of the source. The rule behind the calls is not given here.

Consider `C=C[Si](C)(C)CCl`, for which the mutagenic call was “inactive; negative” (Test System: AMES SALMONELLA TYPHIMURIUM, Strain/Indicator: TA98, Metabolic Activation: HAMSTER, LIVER, S-9, AROCLOR 1254 (10%), Method: STANDARD PLATE); “inactive; negative” under setting [1]; “inactive; negative” (Test System: AMES SALMONELLA TYPHIMURIUM, Strain/Indicator: TA98, Metabolic Activation: RAT, LIVER, S-9, AROCLOR 1254 (10%), Method: STANDARD PLATE); “inactive; negative” (Test System: AMES SALMONELLA TYPHIMURIUM, Strain/Indicator: TA100, Metabolic Activation: HAMSTER, LIVER, S-9, AROCLOR 1254 (10%), Method: STANDARD PLATE); “inactive; negative” under setting [2]; “inactive; negative” (Test System: AMES SALMONELLA TYPHIMURIUM, Strain/Indicator: TA100, Metabolic Activation: RAT, LIVER, S-9, AROCLOR 1254 (10%), Method: STANDARD PLATE). The mutagenic call is, setting by setting: (Test System: AMES SALMONELLA TYPHIMURIUM, Strain/Indicator: TA1535, Metabolic Activation: HAMSTER, LIVER, S-9, AROCLOR 1254 (10%), Method: STANDARD PLATE) “inactive; negative”; under setting [3], “inactive; negative”; (Test System: AMES SALMONELLA TYPHIMURIUM, Strain/Indicator: TA1535, Metabolic Activation: RAT, LIVER, S-9, AROCLOR 1254 (10%), Method: STANDARD PLATE) “inactive; negative”; (Test System: AMES SALMONELLA TYPHIMURIUM, Strain/Indicator: TA1537, Metabolic Activation: HAMSTER, LIVER, S-9, AROCLOR 1254 (10%), Method: STANDARD PLATE) “inactive; negative”; under setting [4], “inactive; negative”; (Test System: AMES SALMONELLA TYPHIMURIUM, Strain/Indicator: TA1537, Metabolic Activation: RAT, LIVER, S-9, AROCLOR 1254 (10%), Method: STANDARD PLATE) “inactive; negative”. Also, the mutagenic call (Test System: AMES SALMONELLA TYPHIMURIUM, Strain/Indicator: TA1538, Metabolic Activation: HAMSTER, LIVER, S-9, AROCLOR 1254 (10%), Method: STANDARD PLATE) was “inactive; negative”; the mutagenic call under setting [5] was “inactive; negative”; the mutagenic call (Test System: AMES SALMONELLA TYPHIMURIUM, Strain/Indicator: TA1538, Metabolic Activation: RAT, LIVER, S-9, AROCLOR 1254 (10%), Method: STANDARD PLATE) is “inactive; negative”; the mutagenic call (Test System: MOUSE LYMPHOMA, Strain/Indicator: L5178Y (TK+/TK-), Metabolic Activation: NONE, Method: SUSPENSION/PLATE) was “inactive; negative. reevaluation of results: inconclusive”; the mutagenic call (Test System: MOUSE LYMPHOMA, Strain/Indicator: L5178Y (TK+/TK-), Metabolic Activation: RAT, LIVER, S-9, AROCLOR 1254, Method: SUSPENSION/PLATE) is “inactive; negative. reevaluation of results: negative”.

As to `C[C@@H]1CC[C@@]2(OC1)O[C@H]1C[C@H]3[C@@H]4CC=C5C[C@@H](O)CC[C@]5(C)[C@H]4CC[C@]3(C)[C@H]1[C@@H]2C`, the mutagenic call (Test System: AMES SALMONELLA TYPHIMURIUM, Strain/Indicator: TA98, Metabolic Activation: HAMSTER, LIVER, S-9, AROCLOR 1254, Method: STANDARD PLATE) was “inactive; negative”; the mutagenic call under setting [1] was “inactive; negative”; the mutagenic call (Test System: AMES SALMONELLA TYPHIMURIUM, Strain/Indicator: TA98, Metabolic Activation: RAT, LIVER, S-9, AROCLOR 1254, Method: STANDARD PLATE) was “inactive; negative”; the mutagenic call (Test System: AMES SALMONELLA TYPHIMURIUM, Strain/Indicator: TA100, Metabolic Activation: HAMSTER, LIVER, S-9, AROCLOR 1254, Method: STANDARD PLATE) was “inactive; negative”; the mutagenic call under setting [2] is “inactive; negative”; the mutagenic call (Test System: AMES SALMONELLA TYPHIMURIUM, Strain/Indicator: TA100, Metabolic Activation: RAT, LIVER, S-9, AROCLOR 1254, Method: STANDARD PLATE) is “inactive; negative”. Moreover, the mutagenic call is “inactive; negative” (Test System: AMES SALMONELLA TYPHIMURIUM, Strain/Indicator: TA1535, Metabolic Activation: HAMSTER, LIVER, S-9, AROCLOR 1254, Method: STANDARD PLATE); “inactive; negative” under setting [3]; “inactive; negative” (Test System: AMES SALMONELLA TYPHIMURIUM, Strain/Indicator: TA1535, Metabolic Activation: RAT, LIVER, S-9, AROCLOR 1254, Method: STANDARD PLATE); “inactive; negative” (Test System: AMES SALMONELLA TYPHIMURIUM, Strain/Indicator: TA1537, Metabolic Activation: HAMSTER, LIVER, S-9, AROCLOR 1254, Method: STANDARD PLATE); “inactive; negative” under setting [4]; “inactive; negative” (Test System: AMES SALMONELLA TYPHIMURIUM, Strain/Indicator: TA1537, Metabolic Activation: RAT, LIVER, S-9, AROCLOR 1254, Method: STANDARD PLATE). Moreover, the mutagenic call is “inactive; negative” (Test System: AMES SALMONELLA TYPHIMURIUM, Strain/Indicator: TA1538, Metabolic Activation: HAMSTER, LIVER, S-9, AROCLOR 1254, Method: STANDARD PLATE); “inactive; negative” under setting [5]; “inactive; negative” (Test System: AMES SALMONELLA TYPHIMURIUM, Strain/Indicator: TA1538, Metabolic Activation: RAT, LIVER, S-9, AROCLOR 1254, Method: STANDARD PLATE).

In the case of `CC1(c2ccccc2)C(=O)c2ccccc2N1[O]` (stereo not drawn), the mutagenic call was “inactive; negative” under setting [1]; “inactive; negative” under setting [2]; “inactive; negative” (Test System: AMES SALMONELLA TYPHIMURIUM, Strain/Indicator: TA102, Metabolic Activation: NONE, Method: STANDARD PLATE).

As for `Cc1ccc2c(ccc3ccccc32)c1`, the mutagenic call reads like this: (Test System: AMES SALMONELLA TYPHIMURIUM, Strain/Indicator: TA97, Metabolic Activation: NONE, Method: STANDARD PLATE) “inactive; negative”; (Test System: AMES SALMONELLA TYPHIMURIUM, Strain/Indicator: TA97, Metabolic Activation: RAT, LIVER, S-9, PCB, Method: STANDARD PLATE) “active; positive”; under setting [1], “inactive; negative”; (Test System: AMES SALMONELLA TYPHIMURIUM, Strain/Indicator: TA98, Metabolic Activation: RAT, LIVER, S-9, PCB, Method: STANDARD PLATE) “active; positive”; under setting [2], “inactive; negative”; (Test System: AMES SALMONELLA TYPHIMURIUM, Strain/Indicator: TA100, Metabolic Activation: RAT, LIVER, S-9, PCB, Method: STANDARD PLATE) “active; positive”.

For `CNc1ccc(N=Nc2ccc(N(C)C(C)=O)cc2)cc1`, the mutagenic call is “active; positive” (Test System: AMES SALMONELLA TYPHIMURIUM, Strain/Indicator: TA98, Metabolic Activation: RAT, LIVER, S-9, POLYCHLORINATED BIPHENYLS, Method: PREINCUBATION) and “active; positive” (Test System: AMES SALMONELLA TYPHIMURIUM, Strain/Indicator: TA100, Metabolic Activation: RAT, LIVER, S-9, POLYCHLORINATED BIPHENYLS, Method: PREINCUBATION).

(Values after PubChem BioAssay AID1259407 (Chemical Carcinogenesis Research Information System (CCRIS), 2018).)
